Assays:
[1] = target: LYN (Homo sapiens (Human), UniProt P07948); assay: kinase binding screen (affinity beads, qPCR readout) at 1000 nM; settings: read-out: % Inhibition @ 1000 nM
[2] = target: BLK (Homo sapiens (Human), UniProt P51451); assay: as above; settings: read-out: % Inhibition @ 1000 nM
[3] = target: FYN (Homo sapiens (Human), UniProt P06241); assay: as above; settings: read-out: % Inhibition @ 1000 nM
[4] = target: LCK (Homo sapiens (Human), UniProt P06239); assay: as above; settings: read-out: % Inhibition @ 1000 nM
[5] = target: HCK (Homo sapiens (Human), UniProt P08631); assay: as above; settings: read-out: % Inhibition @ 1000 nM
[6] = target: YES (Homo sapiens (Human), UniProt P07947); assay: as above; settings: read-out: % Inhibition @ 1000 nM
[7] = target: FGR (Homo sapiens (Human), UniProt P09769); assay: as above; settings: read-out: % Inhibition @ 1000 nM
[8] = target: T1, BTK (Homo sapiens (Human), UniProt Q06187); assay: as above
[9] = target: SRC (Homo sapiens (Human), UniProt P12931); assay: as above
[10] = target: T1, BTK; assay: ADP-Glo Kinase biochemical assay, IC50 determination of BTK inhibitors; settings: head-to-head assays
Description: Biological Properties: IC50 Determination of BTK Inhibitors in ADP-Glo Kinase Biochemical Assay
• Enzyme concentration: 8 ng/5 ul. • ATP concentration: 50 uM • Substrate (peptide) concentration: 0.2 mg/ml. • Reaction buffer composition: 40 mM Tris-HCl pH7.5, 10 mM MgCl2, 2 mM MnCl2, 0.1 mg/mL BSA, 0.05 mM DTT. • Test compound concentration: DMSO≤0.5%. Methods: Compound Dosage Gradient Solution Preparation: […]
1× and 2× assay buffer were made at first. BTK kinase was diluted with 1× assay buffer but substrate was diluted with 2× assay buffer. 1 ul of diluted compound was transferred into 384-well assay plate, and then 2.0 ul of enzyme solution was added, and spun at 2000 rpm for 1 min. This mixture was incubated at 24° C. for 30 mins. 2 ul of peptide substrate/ATP mixture was added into the assay plate to start the reaction. The mixture was mixed thoroughly and then the 384-well plate was spun and incubated at 24° C. for 60 mins. 5.0 ul of ADP-Glo Reagent was added to stop the kinase activity and deplete the ATP unconsumed, and the plate was mixed thoroughly and incubated at 24° C. for 40 min. Then, 10.0 ul of Kinase Detection reagent was added, and the plate was centrifuged and then kept at 24° C. for 30 min. The luminescence signal was read on Envision. […]
All data was analyzed with IDBS XLfit5 software (ID Business Solutions Ltd., UK).

[11] = target: EGFR (Homo sapiens (Human), UniProt P00533); assay: kinase binding screen (affinity beads, qPCR readout) at 1000 nM; settings: read-out: % Inhibition @ 1000 nM

T1 sequence (Q06187 whole entry): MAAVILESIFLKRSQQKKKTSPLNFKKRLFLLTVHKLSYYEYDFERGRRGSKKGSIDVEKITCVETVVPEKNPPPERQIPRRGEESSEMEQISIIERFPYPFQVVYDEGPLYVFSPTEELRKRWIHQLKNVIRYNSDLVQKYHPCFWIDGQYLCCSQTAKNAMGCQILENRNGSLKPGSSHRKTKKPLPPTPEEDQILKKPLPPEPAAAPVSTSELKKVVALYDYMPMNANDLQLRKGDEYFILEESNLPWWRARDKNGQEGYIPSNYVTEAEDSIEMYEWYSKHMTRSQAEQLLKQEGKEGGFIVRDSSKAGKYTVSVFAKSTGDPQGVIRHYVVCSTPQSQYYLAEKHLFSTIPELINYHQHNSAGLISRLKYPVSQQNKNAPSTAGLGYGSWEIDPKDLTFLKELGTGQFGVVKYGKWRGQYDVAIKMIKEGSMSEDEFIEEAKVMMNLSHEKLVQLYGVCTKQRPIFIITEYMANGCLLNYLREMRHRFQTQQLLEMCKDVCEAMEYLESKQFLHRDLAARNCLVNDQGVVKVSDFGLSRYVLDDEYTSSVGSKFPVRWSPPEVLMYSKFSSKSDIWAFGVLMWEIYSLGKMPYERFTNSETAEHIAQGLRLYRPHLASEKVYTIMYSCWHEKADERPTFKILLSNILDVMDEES
Sequence of LCK (P06239 whole entry): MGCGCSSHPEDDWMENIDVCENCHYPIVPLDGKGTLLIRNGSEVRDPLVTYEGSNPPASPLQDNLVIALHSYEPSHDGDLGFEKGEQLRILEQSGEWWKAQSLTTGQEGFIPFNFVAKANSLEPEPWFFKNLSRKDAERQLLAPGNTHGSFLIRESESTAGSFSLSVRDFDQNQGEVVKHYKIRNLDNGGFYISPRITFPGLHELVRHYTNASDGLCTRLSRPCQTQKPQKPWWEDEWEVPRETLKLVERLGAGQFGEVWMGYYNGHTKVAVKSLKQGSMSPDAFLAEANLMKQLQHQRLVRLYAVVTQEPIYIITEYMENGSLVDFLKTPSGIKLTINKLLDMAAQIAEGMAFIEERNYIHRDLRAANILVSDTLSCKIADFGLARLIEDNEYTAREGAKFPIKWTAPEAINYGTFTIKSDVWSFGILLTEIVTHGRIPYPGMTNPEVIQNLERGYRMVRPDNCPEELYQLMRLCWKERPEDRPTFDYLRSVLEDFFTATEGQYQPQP
Sequence of BLK (P51451 whole entry): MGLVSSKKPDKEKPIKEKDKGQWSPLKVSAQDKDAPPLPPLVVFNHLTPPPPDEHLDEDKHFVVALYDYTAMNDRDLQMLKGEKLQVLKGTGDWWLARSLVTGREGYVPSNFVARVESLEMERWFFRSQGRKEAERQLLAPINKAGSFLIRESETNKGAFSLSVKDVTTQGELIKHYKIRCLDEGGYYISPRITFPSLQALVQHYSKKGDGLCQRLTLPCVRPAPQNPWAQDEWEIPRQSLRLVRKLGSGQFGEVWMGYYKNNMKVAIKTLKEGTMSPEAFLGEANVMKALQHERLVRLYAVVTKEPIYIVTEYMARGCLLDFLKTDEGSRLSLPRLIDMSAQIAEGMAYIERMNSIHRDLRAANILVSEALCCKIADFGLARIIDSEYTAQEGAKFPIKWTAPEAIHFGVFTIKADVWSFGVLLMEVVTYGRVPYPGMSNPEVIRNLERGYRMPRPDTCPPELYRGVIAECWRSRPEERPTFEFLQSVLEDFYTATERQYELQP
Sequence of FGR (P09769 whole entry): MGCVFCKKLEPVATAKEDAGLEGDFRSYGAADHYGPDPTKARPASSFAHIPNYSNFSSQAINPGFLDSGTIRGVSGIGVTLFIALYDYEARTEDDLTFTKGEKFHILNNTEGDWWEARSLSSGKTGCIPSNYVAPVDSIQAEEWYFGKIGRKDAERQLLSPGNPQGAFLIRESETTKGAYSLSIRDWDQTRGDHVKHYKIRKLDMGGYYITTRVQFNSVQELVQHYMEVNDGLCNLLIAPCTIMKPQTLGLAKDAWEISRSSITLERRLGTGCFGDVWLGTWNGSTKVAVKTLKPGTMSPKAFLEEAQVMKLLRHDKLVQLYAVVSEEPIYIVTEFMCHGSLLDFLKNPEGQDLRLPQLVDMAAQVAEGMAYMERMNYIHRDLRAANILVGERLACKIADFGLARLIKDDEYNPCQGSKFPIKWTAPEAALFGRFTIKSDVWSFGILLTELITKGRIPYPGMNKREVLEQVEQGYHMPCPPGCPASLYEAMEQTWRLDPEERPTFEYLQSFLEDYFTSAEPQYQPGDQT
Sequence of YES (P07947 whole entry): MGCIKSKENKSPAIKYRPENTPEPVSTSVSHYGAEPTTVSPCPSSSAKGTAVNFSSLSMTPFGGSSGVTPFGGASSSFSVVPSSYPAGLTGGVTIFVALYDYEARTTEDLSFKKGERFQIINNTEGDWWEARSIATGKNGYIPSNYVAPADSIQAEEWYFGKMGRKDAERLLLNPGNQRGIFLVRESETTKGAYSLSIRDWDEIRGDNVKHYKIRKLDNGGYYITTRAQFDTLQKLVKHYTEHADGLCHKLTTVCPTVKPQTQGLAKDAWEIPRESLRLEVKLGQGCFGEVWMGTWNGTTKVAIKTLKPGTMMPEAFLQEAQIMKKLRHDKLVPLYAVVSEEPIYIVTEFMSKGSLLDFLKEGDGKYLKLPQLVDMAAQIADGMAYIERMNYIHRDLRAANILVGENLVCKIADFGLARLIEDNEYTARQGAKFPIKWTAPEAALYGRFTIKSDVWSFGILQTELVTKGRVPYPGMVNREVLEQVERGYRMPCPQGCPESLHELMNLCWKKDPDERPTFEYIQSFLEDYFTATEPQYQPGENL
Sequence of LYN (P07948 whole entry): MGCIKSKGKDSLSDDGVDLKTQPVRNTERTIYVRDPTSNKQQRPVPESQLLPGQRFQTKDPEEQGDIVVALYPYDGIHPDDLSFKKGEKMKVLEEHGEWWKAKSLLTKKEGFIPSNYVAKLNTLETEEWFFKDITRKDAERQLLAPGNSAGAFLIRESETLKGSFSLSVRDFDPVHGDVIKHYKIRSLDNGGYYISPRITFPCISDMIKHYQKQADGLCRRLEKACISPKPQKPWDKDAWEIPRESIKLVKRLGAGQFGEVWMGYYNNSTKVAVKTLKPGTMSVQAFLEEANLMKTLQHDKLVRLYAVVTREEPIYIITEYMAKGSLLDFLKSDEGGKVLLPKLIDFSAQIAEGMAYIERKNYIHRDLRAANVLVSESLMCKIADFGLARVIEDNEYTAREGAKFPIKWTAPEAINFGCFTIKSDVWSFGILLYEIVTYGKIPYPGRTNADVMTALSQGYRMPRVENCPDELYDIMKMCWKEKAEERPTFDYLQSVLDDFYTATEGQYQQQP
Sequence of SRC (P12931 whole entry, looked up): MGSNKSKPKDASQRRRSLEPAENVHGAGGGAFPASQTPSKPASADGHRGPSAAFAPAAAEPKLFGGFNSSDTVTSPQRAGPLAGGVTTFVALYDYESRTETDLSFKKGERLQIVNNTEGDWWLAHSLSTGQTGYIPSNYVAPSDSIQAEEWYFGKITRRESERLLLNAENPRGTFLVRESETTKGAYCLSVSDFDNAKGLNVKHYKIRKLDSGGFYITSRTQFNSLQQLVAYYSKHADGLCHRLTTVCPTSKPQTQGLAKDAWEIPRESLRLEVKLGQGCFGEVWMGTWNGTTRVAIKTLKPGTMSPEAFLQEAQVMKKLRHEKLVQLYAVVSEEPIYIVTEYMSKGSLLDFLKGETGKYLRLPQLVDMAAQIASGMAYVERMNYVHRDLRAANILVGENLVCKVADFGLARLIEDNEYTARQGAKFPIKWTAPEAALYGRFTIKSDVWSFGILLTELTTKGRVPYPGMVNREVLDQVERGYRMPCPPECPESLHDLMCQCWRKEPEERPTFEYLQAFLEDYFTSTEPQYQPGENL
Sequence of HCK (P08631 whole entry): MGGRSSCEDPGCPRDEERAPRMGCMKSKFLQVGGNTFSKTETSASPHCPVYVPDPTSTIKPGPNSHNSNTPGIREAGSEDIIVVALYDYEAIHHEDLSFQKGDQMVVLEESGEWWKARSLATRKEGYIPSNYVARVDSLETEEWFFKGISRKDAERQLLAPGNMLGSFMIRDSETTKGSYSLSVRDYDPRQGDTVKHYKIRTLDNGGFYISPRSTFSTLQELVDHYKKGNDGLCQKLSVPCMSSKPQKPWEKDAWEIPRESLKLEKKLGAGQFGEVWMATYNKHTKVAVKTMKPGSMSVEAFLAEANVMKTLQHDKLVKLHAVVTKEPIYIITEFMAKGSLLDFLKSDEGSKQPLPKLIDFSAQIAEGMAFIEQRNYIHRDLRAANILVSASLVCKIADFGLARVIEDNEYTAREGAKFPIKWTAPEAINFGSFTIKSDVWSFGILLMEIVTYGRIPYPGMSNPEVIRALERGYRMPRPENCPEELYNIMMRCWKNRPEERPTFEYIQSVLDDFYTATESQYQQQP
Sequence of FYN (P06241 whole entry): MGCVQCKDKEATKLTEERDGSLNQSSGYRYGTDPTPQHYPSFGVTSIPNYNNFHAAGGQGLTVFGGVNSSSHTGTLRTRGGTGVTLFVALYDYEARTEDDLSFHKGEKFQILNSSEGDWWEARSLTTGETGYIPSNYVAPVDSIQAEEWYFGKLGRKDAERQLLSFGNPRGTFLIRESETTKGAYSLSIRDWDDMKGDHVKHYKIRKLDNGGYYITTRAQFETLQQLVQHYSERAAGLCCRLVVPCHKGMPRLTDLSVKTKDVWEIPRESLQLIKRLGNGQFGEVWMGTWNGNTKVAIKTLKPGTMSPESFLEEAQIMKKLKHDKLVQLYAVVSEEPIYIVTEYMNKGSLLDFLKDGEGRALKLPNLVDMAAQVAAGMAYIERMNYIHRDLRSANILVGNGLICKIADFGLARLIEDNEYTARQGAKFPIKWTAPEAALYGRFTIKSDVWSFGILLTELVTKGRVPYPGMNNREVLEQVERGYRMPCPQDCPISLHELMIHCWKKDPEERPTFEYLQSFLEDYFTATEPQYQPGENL

| Structure (SMILES) | inhibition at 1 µM [1] | inhibition at 1 µM [2] | inhibition at 1 µM [3] | inhibition at 1 µM [4] | inhibition at 1 µM [5] | inhibition at 1 µM [6] | inhibition at 1 µM [7] | inhibition at 1 µM [8] | Fold Difference ([9]; BTK vs SRC) | inhibition at 1 µM ([9]; SRC, 1000 nM) | IC50 ([10]; unit not printed in Table 2, read-out: BTK in vitro potency) | improvement in potency over Analogs 1 and 2 ([10]; in vitro BTK potency) | inhibition at 1 µM [11] |
| --- | --- | --- | --- | --- | --- | --- | --- | --- | --- | --- | --- | --- | --- |
| C=CC(=O)N1CCC(c2ccc(C(N)=O)c(-c3ccc(Oc4ccccc4)cc3)n2)CC1 [Example 3, 6-(1-acryloylpiperidin-4-yl)-2-(4-phenoxyphenyl)nicotinamide] | 3% | 51% | 0% | 11% | 0% | 8% | 0% | – | – | – | – | – | – |
| C=CC(=O)N1CCN(c2ccc(C(N)=O)c(-c3ccc(Oc4ccccc4)cc3)n2)CC1 [Example 5, 6-(4-acryloylpiperazin-1-yl)-2-(4-phenoxyphenyl)nicotinamide] | 7% | 46% | 5% | 0% | 21% | 6% | 0% | 99.7% | >100x | 33% | 4.7 nM | ~100 × | 23% |

Reference: patent US10301297B2, “Substituted nicotinimide inhibitors of BTK and their preparation and use in the treatment of cancer, inflammation and autoimmune disease” (GUANGZHOU INNOCARE PHARMA TECH CO., LTD., priority 2013, dated 2019)
